Data: the NIST ThermoML archive (doi:10.1016/j.tca.2015.08.013)

Settings: for vapor or sublimation pressure / mass density / kinematic viscosity / speed of sound: Liquid; for vapor or sublimation pressure: Ebulliometric method (Recirculating still); for surface tension liquid-gas: Drop volume; for mass density: Vibrating tube method; for kinematic viscosity / speed of sound: 101.33 kPa; for kinematic viscosity: Capillary tube (Ostwald / Ubbelohde) method; for speed of sound: Sing-around technique in a fixed-path interferometer

Cc1ccco1 [2-methylfuran]
Settings | kinematic viscosity [m2/s] | speed of sound [m/s] | surface tension liquid-gas [mN/m] | vapor or sublimation pressure [kPa]
308.17 K | – | – | – | 35.04
310.12 K | – | – | – | 37.92
310.65 K | 3.92e-07 | 1106.8 | 22.71 | –
312.06 K | – | – | – | 41.03
313.15 K | 3.83e-07 | 1095.6 | 22.37 | –
314.02 K | – | – | – | 44.3
315.65 K | 3.74e-07 | 1084.4 | 22.08 | –
316.08 K | – | – | – | 47.94
317.22 K | – | – | – | 50.08
318.15 K | 3.66e-07 | 1073.3 | 21.69 | –
319.29 K | – | – | – | 54.16
320.65 K | 3.58e-07 | 1062.1 | 21.35 | –
321.15 K | – | – | – | 58.19
323.05 K | – | – | – | 62.23
323.15 K | 3.5e-07 | 1051 | 21 | –
325.57 K | – | – | – | 68.18
325.65 K | 3.42e-07 | 1039.9 | 20.7 | –
327.23 K | – | – | – | 72.31
328.15 K | 3.36e-07 | 1028.8 | 20.46 | –
329.07 K | – | – | – | 77.17
330.65 K | 3.28e-07 | 1017.7 | 20.08 | –
331.13 K | – | – | – | 82.86
333.15 K | 3.2e-07 | 1006.7 | 19.74 | –
333.27 K | – | – | – | 89.15
334.25 K | – | – | – | 92.22
335.65 K | 3.13e-07 | 995.68 | 19.41 | –
336.39 K | – | – | – | 99.03
337.09 K | – | – | – | 101.33
338.15 K | 3.07e-07 | 984.65 | 19.09 | –

Settings | mass density [kg/m3]
310.65 K, 99 kPa | 894.953
313.15 K, 99 kPa | 891.871
313.15 K, 100 kPa | 891.87
313.15 K, 2500 kPa | 894.72
313.15 K, 5000 kPa | 897.62
313.15 K, 7500 kPa | 900.57
313.15 K, 10000 kPa | 903.14
313.15 K, 20000 kPa | 913.34
313.15 K, 30000 kPa | 922.45
313.15 K, 40000 kPa | 930.83
313.15 K, 50000 kPa | 938.5
313.15 K, 60000 kPa | 945.71
315.65 K, 99 kPa | 888.779
318.15 K, 99 kPa | 885.676
318.15 K, 100 kPa | 885.68
318.15 K, 2500 kPa | 888.8
318.15 K, 5000 kPa | 891.79
318.15 K, 7500 kPa | 894.77
318.15 K, 10000 kPa | 897.58
318.15 K, 20000 kPa | 907.94
318.15 K, 30000 kPa | 917.27
318.15 K, 40000 kPa | 925.75
318.15 K, 50000 kPa | 933.61
318.15 K, 60000 kPa | 941.15
320.65 K, 99 kPa | 882.558
323.15 K, 99 kPa | 879.425
323.15 K, 100 kPa | 879.43
323.15 K, 2500 kPa | 882.68
323.15 K, 5000 kPa | 885.8
323.15 K, 7500 kPa | 888.76
323.15 K, 10000 kPa | 891.8
323.15 K, 20000 kPa | 902.39
323.15 K, 30000 kPa | 911.96
323.15 K, 40000 kPa | 920.89
323.15 K, 50000 kPa | 929.01
323.15 K, 60000 kPa | 936.53
325.65 K, 99 kPa | 876.278
328.15 K, 99 kPa | 873.118
328.15 K, 100 kPa | 873.12
328.15 K, 2500 kPa | 876.29
328.15 K, 5000 kPa | 879.75
328.15 K, 7500 kPa | 882.71
328.15 K, 10000 kPa | 885.92
328.15 K, 20000 kPa | 896.99
328.15 K, 30000 kPa | 906.92
328.15 K, 40000 kPa | 915.88
328.15 K, 50000 kPa | 924.13
328.15 K, 60000 kPa | 931.92
330.65 K, 99 kPa | 869.944
333.15 K, 99 kPa | 866.753
333.15 K, 100 kPa | 866.75
333.15 K, 2500 kPa | 870.11
333.15 K, 5000 kPa | 873.62
333.15 K, 7500 kPa | 876.95
333.15 K, 10000 kPa | 880.01
333.15 K, 20000 kPa | 891.39
333.15 K, 30000 kPa | 901.64
333.15 K, 40000 kPa | 910.95
333.15 K, 50000 kPa | 919.48
333.15 K, 60000 kPa | 927.42
335.65 K, 99 kPa | 863.547
338.15 K, 99 kPa | 860.327
338.15 K, 100 kPa | 860.33
338.15 K, 2500 kPa | 863.95
338.15 K, 5000 kPa | 867.36
338.15 K, 7500 kPa | 870.91
338.15 K, 10000 kPa | 874.16
338.15 K, 20000 kPa | 886.03
338.15 K, 30000 kPa | 896.44
338.15 K, 40000 kPa | 905.99
338.15 K, 50000 kPa | 914.74
338.15 K, 60000 kPa | 922.79
